Source: patent US20100261162A1, “Methods of assaying for telomerase activity and compositions related to same” (priority 2005, published 2010)

Molecular target: T1, telomerase (HEK293T cell lysates) (Homo sapiens, UniProt O14746)
T1 construct: effect of TBT oligonucleotide length in HEK293T cell lysates; endogenous in cells; host or cells: HEK293T cell lysate (CHAPS lysis)
Experiment: TBT assay, effect of telomerase oligonucleotide template length
Format: biochemical
Conditions: TBT luminescence, short (0.5 repeat), 2.5 repeat and 3.5 repeat oligonucleotides compared
Description: FIG. 16 illustrates a graphical representation showing the effect of TBT oligonucleotide length in HEK293T cell lysates according to an embodiment of the present invention.
Design of the telomerase-specific oligonucleotide template attached to the magnetic bead is critical for maximizing sensitivity of the TBT assay. The minimal recognition DNA sequence for base-pairing between the RNA component of telomerase and the telomere end is 9 bases—TAGGGTTAG, however, multiple repeats of this sequence more accurately depict the nature of chromosome telomere ends and the scanning nature of enzymes used to achieve accurate base-pair recognition. Telomerase templates include those ranging from 1.5-3 hexameric repeats.
Three forms of the oligonucleotide were tested. A short version containing a partial (0.5) repeat, a slightly longer version containing 2.5 repeats, and a longer version with 3.5 repeats. […] This increased dynamic range is likely to translate into increased sensitivity of the assay.

T1 sequence (O14746 whole entry): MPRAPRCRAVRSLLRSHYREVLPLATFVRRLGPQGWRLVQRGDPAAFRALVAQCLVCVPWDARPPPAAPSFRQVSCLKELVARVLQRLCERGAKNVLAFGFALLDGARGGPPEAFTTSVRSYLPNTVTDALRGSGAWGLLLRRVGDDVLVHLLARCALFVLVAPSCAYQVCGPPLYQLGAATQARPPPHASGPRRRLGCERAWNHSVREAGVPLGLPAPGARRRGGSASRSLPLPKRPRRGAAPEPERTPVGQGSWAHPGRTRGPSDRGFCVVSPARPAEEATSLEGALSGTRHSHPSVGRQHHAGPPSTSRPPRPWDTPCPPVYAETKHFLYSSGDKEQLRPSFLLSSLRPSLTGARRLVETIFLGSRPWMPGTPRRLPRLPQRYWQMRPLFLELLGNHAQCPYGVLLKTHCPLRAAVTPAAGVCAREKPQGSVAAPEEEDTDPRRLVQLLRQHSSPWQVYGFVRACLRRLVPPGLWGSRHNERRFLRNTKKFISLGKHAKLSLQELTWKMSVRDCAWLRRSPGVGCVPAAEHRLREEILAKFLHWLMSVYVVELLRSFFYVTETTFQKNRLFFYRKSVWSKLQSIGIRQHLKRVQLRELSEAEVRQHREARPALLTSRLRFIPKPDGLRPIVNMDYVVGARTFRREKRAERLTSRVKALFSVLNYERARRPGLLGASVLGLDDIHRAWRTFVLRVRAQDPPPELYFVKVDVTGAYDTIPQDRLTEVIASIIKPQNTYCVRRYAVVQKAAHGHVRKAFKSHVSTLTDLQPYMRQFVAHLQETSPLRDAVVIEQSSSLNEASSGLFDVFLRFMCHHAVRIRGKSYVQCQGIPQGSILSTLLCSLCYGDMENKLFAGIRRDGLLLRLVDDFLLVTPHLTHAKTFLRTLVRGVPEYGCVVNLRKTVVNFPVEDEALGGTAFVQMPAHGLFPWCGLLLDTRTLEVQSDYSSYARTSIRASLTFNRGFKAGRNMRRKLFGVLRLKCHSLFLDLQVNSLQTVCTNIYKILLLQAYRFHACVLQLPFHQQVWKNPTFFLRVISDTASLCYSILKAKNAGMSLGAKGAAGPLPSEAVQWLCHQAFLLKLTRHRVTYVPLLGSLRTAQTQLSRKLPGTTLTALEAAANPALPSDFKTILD

## longer version: Long human telomerase recognition nucleotide sequence, 5′ thiol-linked, 3.5 repeats, attached to magnetic bead (DNA TTTTTTAATCCGTCGAGCAGAGTTAGGGTTAGGGTTAGGGTTAGGGTTAG; 5' thiol linker, attached to magnetic bead, further chemistry not given here)
  absolute signal relative to the background signal (no telomerase extract): better absolute signal relative to the background signal
